The values below come from paper PMC6161010, “A Simple and Sensitive Liquid Chromatography with Tandem Mass Spectrometric Method for the Simultaneous Determination of Anthraquinone Glycosides and Their Aglycones in Rat Plasma: Application to a Pharmacokinetic Study of Rumex acetosa Extract” (Pharmaceutics, 2018).

The nature of series [1]: Pharmacokinetic study after oral administration of R. acetosa extract to rats. The series is classed as in vivo, Sprague‒Dawley rats. Conditions: oral R. acetosa extract 2 g/kg; for MRT / half-life / Cmax / AUC(0-t): n = 3, mean ± SD; for Cmax / AUC(0-t): rat plasma; for AUC(0-t): last measured time points for C, E, CG, PG 6, 24, 8, 6 h. Here is the method:
The analysis was performed on an Agilent 1260 series (Agilent Technologies, Waldbronn, Germany) HPLC system. Chromatographic separation of the samples was carried out on a Kinetex Biphenyl column (100 × 3.0 mm, 2.6 μm, 110 Å, Phenomenex, Torrance, CA, USA). The mobile phase consisted of 2 mM ammonium formate (pH 6) in water (A) and 2 mM ammonium formate (pH 6) in methanol (B). The gradient program was used at a flow rate of 0.3 mL/min while maintaining the column temperature at 40 °C. The mobile phase initial composition of 25% B was maintained for 2 min. It was then increased linearly from 25% to 95% B for 0.5 min and held for 7 min. The gradient was then changed back to the initial condition for 0.5 min and kept at the initial condition for 3 min. The total analysis time was 13 min for each sample. The injection volume was 15 μL.
The mass spectrometric detection was performed on an Agilent 6460 triple-quadruple mass spectrometer (Agilent Technologies, Singapore) with an electrospray ionization source. It was operated in the negative ion detection mode because of its higher sensitivity than that in the positive ionization mode on multiple reaction monitoring (MRM). The data were acquired and processed using Mass Hunter Workstation B.06.00 software (Agilent Technologies, Singapore). The source parameters were also optimized as follows: a drying gas flow and temperature at 6 L/min and 350 °C were used, respectively; the sheath gas flow and temperature were maintained at 12 L/min and 350 °C, respectively; the nebulizing gas (N2) pressure was set at 25 psi; and the capillary and nozzle voltages were set at 3500 V and 500 V, respectively.
To 20 μL aliquot of the rat plasma samples, 60 μL of 5 ng/mL IS in methanol was added. The mixture was vortexed for 30 s and kept at 4 °C for 30 min. The mixture was centrifuged at 10,000× g for 10 min. The supernatant was transferred to an HPLC vial, and 15 μL of the processed sample was injected onto the LC-MS/MS system.
Male Sprague‒Dawley rats (8-week-old, weighing 250 ± 10 g) were obtained from Koatech (Pyeongtaek, Korea). They were housed and acclimated in the Animal Laboratory, Gyeongsang National University, under controlled temperature and humidity and regular 12 h light cycle, freely accessible to food and water for 7 days before the experiment. The rats were cannulated into the carotid artery and allowed to recover for one day. Before the pharmacokinetic study, all rats were fasted for 12 h with free access to water. R. acetosa extract suspended in a solution (ethanol:polysorbate 80:water = 1:2:7, v/v/v) was orally administered to the three rats at a dose of 2 g/kg. The calculated doses of compounds based on the contents in the extract were 18.8, 25.8, 13.6, 15.4, 3.4, and 8.2 mg/kg for E, EG, C, CG, P, and PG, respectively. Blood samples (100 µL) were collected via the cannulated carotid vessel at 0, 15, 30, 45 min, 1, 2, 3, 4, 6, 8, 12, and 24 h after oral administration. To collect plasma, the blood samples were immediately centrifuged at 10,000× g for 5 min. All plasma samples were stored at −80 °C until analysis. All experimental procedures of the animal study were approved (GNU-130618-R0038) by the Animal Care and Use Committee of Gyeongsang National University, Korea.

Series [2] is described as follows: Stability of the analytes in rat plasma (method validation). The series is classed as in vitro ADME. The conditions noted are these: n = 3; for Processed Sample Stability, Accuracy: processed rat plasma sample, 4 °C 24 h; for Short Term Stability, Accuracy / Freeze and Thaw Stability, Accuracy / Long Term Stability, Accuracy: rat plasma; for Short Term Stability, Accuracy: room temperature 4 h; for Freeze and Thaw Stability, Accuracy: three freeze-thaw cycles −80 °C to room temperature; for Long Term Stability, Accuracy: −80 °C one month. Here is the method: (§1) The stability of the analytes in rat plasma was evaluated by analyzing triplicates of three QC levels at room temperature for 4 h (short-term stability), −80 °C for one month (long-term stability), three freeze-thaw cycles from −80 °C to room temperature (freeze and thaw stability), and 4 °C for 24 h (processed sample stability). The stability of analytes in stock solution was also evaluated. The peak areas obtained from freshly prepared stock solutions were compared with stock solutions stored for 4 h at room temperature.

Series [3] is described as follows: Stability of analytes in stock solution. It is filed as physicochemical. The conditions noted are these: stock solutions stored at room temperature for 4 h, n = 3. As to the method: The primary stock solutions of E, EG, C, CG, P, PG, and IS were prepared in dimethyl sulfoxide at a concentration of 1 mg/mL and stored at −80 °C. The mixture stock solutions to obtain the standard solutions were serially diluted in methanol. The IS stock solution of 5 ng/mL was prepared in methanol. The calibration standards were prepared by spiking 10 μL of above standard solutions into 90 μL of blank rat plasma to yield concentration ranges of 1–300 ng/mL for E, 20–300 ng/mL for P and C, 1–150 ng/mL for EG, 10–150 ng/mL for CG and PG. Twenty microliters of aliquots were prepared and stored at −80 °C until analysis.
as §1

Setting [4] is: male, Sprague-Dawley, plasma, rat.
Setting [5] is: high QC (P, E, C 300; PG, EG, CG 150 ng/mL).
Where [6] appears, read: low QC (P, C 60; E, EG 3; PG, CG 30 ng/mL).
The mark [7] stands for this setting: middle QC (P, E, C 150; PG, EG, CG 75 ng/mL).
[8] abbreviates: male, Sprague-Dawley, plasma, rat, n = 3, median (range), read-out: Tmax.

Like-named read-outs stand apart in the source and are kept apart here.

By MRT is commonly meant the average time that molecules of a dose stay in the body. Usually half-life stands for the time needed for the level to fall by half in the phase considered. A lower half-life goes with rapid decline. What is called Cmax is the highest concentration seen after dosing. As a reminder, the AUC(0-t) is the area under the concentration-time curve up to a stated or last time point. A lower AUC(0-t) goes with less exposure. In series [1] (setting [4]), `Cc1cc(O)c2c(c1)C(=O)c1cccc(O)c1C2=O` [C, chrysophanol] gave an MRT of 2.4 ± 0.2 h and a half-life of 3.9 ± 0.6 h. Further, the Tmax in series [1] (male, Sprague-Dawley, plasma, rat, read-out: Median Tmax (converted)) is 0.25 h. In addition, in series [1] (male, Sprague-Dawley), the peak level (Cmax) was 156 ± 86 ng/mL and the AUC(0-t) is 266 ± 70.9 ng·h/mL. In series [1] (rat), the “first time detected in plasma of every rat (first sampling time)” value (“first time detected in plasma” for short) is recorded as 15 min and the “time from which plasma concentrations were below the LLOQ” value is 6 h. The Tmax in series [1] (rat, n = 3, median (range)) is 0.25 (0.25–0.5) h. In addition, in series [2] (setting [5]), the “Processed Sample Stability, Accuracy” value turned out to be 102.3%; the “Short Term Stability, Accuracy” value is 101.2%; the “Freeze and Thaw Stability, Accuracy” value is reported as 92.4%; the “Long Term Stability, Accuracy” value amounted to 102.6%. Besides, in series [2] (setting [6]), the “Processed Sample Stability, Accuracy” value turned out to be 101.5%; the “Short Term Stability, Accuracy” value was found to be 103.5%; the “Freeze and Thaw Stability, Accuracy” value was determined as 89.7%; the “Long Term Stability, Accuracy” value is listed as 104.3%. For the same compound, in series [2] (setting [7]), the “Processed Sample Stability, Accuracy” value turned out to be 103.7%; the “Short Term Stability, Accuracy” value is 98.6%; the “Freeze and Thaw Stability, Accuracy” value is recorded as 91.8%; the “Long Term Stability, Accuracy” value is recorded as 97.9%. Besides, the “mean concentration in stock solution compared with fresh stock solutions” value in series [3] was 95.9%.

In series [1] (setting [4]), `Cc1cc(O)c2c(c1)C(=O)c1cccc(O[C@@H]3O[C@H](CO)[C@@H](O)[C@H](O)[C@H]3O)c1C2=O` [CG, chrysophanol-8-O-β-D-glucoside] gave a mean residence time (MRT) of 2.4 ± 0.08 h and a half-life of 4.8 ± 0.5 h. Also, in series [1] (setting [8]), the Tmax came to 2 h. Further, in series [1] (male, Sprague-Dawley), the peak level (Cmax) was 28.7 ± 4.7 ng/mL and the AUC(0-t) stood at 158 ± 12.3 ng·h/mL. In series [1] (rat), the “first time detected in plasma” value came to 15 min and the “time until which the analyte could be detected in plasma” value is 8 h. Moreover, in series [2] (setting [5]), the “Processed Sample Stability, Accuracy” value was determined as 96.7%; the “Short Term Stability, Accuracy” value turned out to be 101.8%; the “Freeze and Thaw Stability, Accuracy” value is on record as 97.0%; the “Long Term Stability, Accuracy” value is 101.5%. In series [2] (setting [6]), the “Processed Sample Stability, Accuracy” value is 91.1%; the “Short Term Stability, Accuracy” value came to 97.6%; the “Freeze and Thaw Stability, Accuracy” value came to 98.3%; the “Long Term Stability, Accuracy” value is on record as 97.5%. Moreover, in series [2] (setting [7]), the “Processed Sample Stability, Accuracy” value turned out to be 100.2%; the “Short Term Stability, Accuracy” value turned out to be 96.9%; the “Freeze and Thaw Stability, Accuracy” value is reported as 101.0%; the “Long Term Stability, Accuracy” value was 100.6%. Besides, the “mean concentration in stock solution compared with fresh stock solutions” value in series [3] was determined as 101.7%.

Consider `COc1cc(O)c2c(c1)C(=O)c1cc(C)cc(O)c1C2=O` [P, physcion], for which the “plasma concentrations (in words)” value in series [1] (rat) is reported as “not high enough to determine the pharmacokinetic parameters”. Further, in series [2] (setting [5]), the “Processed Sample Stability, Accuracy” value is listed as 102.7%; the “Short Term Stability, Accuracy” value came to 103.8%; the “Freeze and Thaw Stability, Accuracy” value is listed as 104.2%; the “Long Term Stability, Accuracy” value was found to be 98.0%. Also, in series [2] (setting [6]), the “Processed Sample Stability, Accuracy” value was 102.2%; the “Short Term Stability, Accuracy” value stood at 104.9%; the “Freeze and Thaw Stability, Accuracy” value was determined as 103.6%; the “Long Term Stability, Accuracy” value worked out at 107.3%. Besides, in series [2] (setting [7]), the “Processed Sample Stability, Accuracy” value is on record as 101.6%; the “Short Term Stability, Accuracy” value was found to be 98.9%; the “Freeze and Thaw Stability, Accuracy” value turned out to be 103.9%; the “Long Term Stability, Accuracy” value was found to be 100.1%. In series [3], the “mean concentration in stock solution compared with fresh stock solutions” value was found to be 99.2%.

`COc1cc(O[C@@H]2O[C@H](CO)[C@@H](O)[C@H](O)[C@H]2O)c2c(c1)C(=O)c1cc(C)cc(O)c1C2=O` [PG, physcion-8-O-β-D-glucoside]: in series [1] (setting [4]), the mean residence time (MRT) was found to be 2.7 ± 0.6 h and the half-life is 6.2 ± 3.9 h. In addition, the Tmax in series [1] (setting [8]) turned out to be 0.75 h. In series [1] (male, Sprague-Dawley), this compound registered a peak concentration (Cmax) of 20.5 ± 1.4 ng/mL and an AUC(0-t) of 82.8 ± 13.8 ng·h/mL. In series [1] (rat), the “first time detected in plasma” value is 15 min and the “time from which plasma concentrations were below the LLOQ” value was 6 h. Moreover, in series [2] (setting [5]), the “Processed Sample Stability, Accuracy” value was determined as 96.8%; the “Short Term Stability, Accuracy” value is recorded as 96.7%; the “Freeze and Thaw Stability, Accuracy” value came out at 93.6%; the “Long Term Stability, Accuracy” value stood at 97.1%. For the same compound, in series [2] (setting [6]), the “Processed Sample Stability, Accuracy” value was 98.8%; the “Short Term Stability, Accuracy” value worked out at 98.9%; the “Freeze and Thaw Stability, Accuracy” value is given as 101.5%; the “Long Term Stability, Accuracy” value came to 97.7%. For the same compound, in series [2] (setting [7]), the “Processed Sample Stability, Accuracy” value was 92.7%; the “Short Term Stability, Accuracy” value is recorded as 91.8%; the “Freeze and Thaw Stability, Accuracy” value is given as 94.3%; the “Long Term Stability, Accuracy” value is 98.5%. Moreover, in series [3], the “mean concentration in stock solution compared with fresh stock solutions” value is given as 102.4%.
